Measured values reported in patent US11578060B2, “JAK3 selective inhibitor” (PEKING UNIVERSITY SHENZHEN GRADUATE SCHOOL, priority 2018, dated 2023).

What was measured:
[1] = target: PKCα (Homo sapiens, UniProt P17252); experiment: Selectivity assay against a panel of kinases: PKCα; format: biochemical; conditions: tested at 1 μM
[2] = target: PKCγ (Homo sapiens, UniProt P05129); experiment: Selectivity assay against a panel of kinases: PKCγ; format: biochemical; conditions: tested at 1 μM
[3] = target: GSK3β (Homo sapiens, UniProt P49841); experiment: Selectivity assay against a panel of kinases: GSK3β; format: biochemical; conditions: tested at 1 μM
[4] = test system: IL-15-induced STAT5 phosphorylation; experiment: IL-15-induced STAT5 phosphorylation in PBMC (Western blot); format: cell-based, human
[5] = test system: STAT3 phosphorylation (IL-6 signal pathway); experiment: Cellular selectivity assay: IL-6-stimulated STAT3 phosphorylation in PBMCs; format: cell-based, human; conditions: IL-6, doses as high as 10 μM
[6] = test system: STAT1 phosphorylation (IFN-α signal pathway); experiment: Cellular selectivity assay: IFN-α-stimulated STAT1 phosphorylation in PBMCs; format: cell-based, human; conditions: doses as high as 10 μM
[7] = test system: STAT5 phosphorylation; experiment: Cell washout experiment, IL-15-stimulated CTLL-2 cells; format: cell-based, Mouse; conditions: CTLL-2, 2 h treatment, washed three times, IL-15 30 min
Description: The washout procedures are as follows: CTLL-2 cells were treated with compounds for 2 hours. Then, for washout groups, cells were washed three times with PBS. The non-washout groups were kept constant. Cells were then stimulated with IL-15 for 30 min, lysed, and subjected to standard Western blot. Cells, treated with compounds, were extensively washed with PBS.

[8] = test system: IL-6 release; experiment: LPS-induced IL-6 release assay in PBMCs (ELISA); format: cell-based, human; conditions: LPS-challenged PBMCs, 24 h
Description: (§1) The LPS-induced IL-6 and TNF-α release assay was carried out as follows: frozen PBMCs (from Allcells) were thawed in RPMI1640 (Thermo Fisher) containing 10% FBS and recovered overnight at 37° C. The next day, cells were diluted to 1×10^6 cells/mL and seeded (500 μL) in 6-well plates. Compounds or DMSO (5 μL, serially diluted in DMSO) were added to the plates and incubated with cells for 2 h at 37° C., followed by stimulation with LPS (5 μL, 1 μg/mL) and incubation for 24 h at 37° C. in 5% CO2. Supernatants were collected for determination of IL-6 and TNF-α levels using human IL-6 or human THF-α DuoSet ELISA Kits (R&D Systems) according to the manufacturer's instructions.

[9] = test system: TNF-α release; experiment: LPS-induced TNF-α release assay in PBMCs (ELISA); format: cell-based, human; conditions: LPS-challenged PBMCs, 24 h
Description: as §1

[10] = test system: MCP-1 release; experiment: IL-6 stimulated MCP-1 release assay; format: cell-based, human
Description: as §1
IL-6 stimulated inflammatory cytokine MCP-1 release assay was performed in a similar way.

[11] = test system: panel of kinases; conditions: tested at 1 μM
[12] = test system: IL-2-induced STAT5 phosphorylation; experiment: IL-2-induced STAT5 phosphorylation in PBMC (Western blot)
[13] = test system: phosphorylation of downstream substrates of JAKs; conditions: PBMCs; IL-15, IL-6, IFN-α

Chain of GSK3β (P49841 whole entry, species assumed): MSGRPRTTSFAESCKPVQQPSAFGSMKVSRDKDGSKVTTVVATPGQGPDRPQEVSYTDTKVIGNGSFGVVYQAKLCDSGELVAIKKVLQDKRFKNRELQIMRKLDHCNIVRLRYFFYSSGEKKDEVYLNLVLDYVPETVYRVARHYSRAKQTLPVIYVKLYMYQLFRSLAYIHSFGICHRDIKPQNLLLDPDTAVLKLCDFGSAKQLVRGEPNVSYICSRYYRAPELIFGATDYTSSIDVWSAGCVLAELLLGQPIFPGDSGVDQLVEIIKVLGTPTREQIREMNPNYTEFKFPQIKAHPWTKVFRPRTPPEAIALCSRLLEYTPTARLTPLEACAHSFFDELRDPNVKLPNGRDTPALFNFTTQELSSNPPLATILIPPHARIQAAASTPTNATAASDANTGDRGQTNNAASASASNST

Row | Compound | inhibition at 1 µM [1] | inhibition at 1 µM [2] | inhibition at 1 µM [3] | inhibitory activity against IL-15-induced STAT5 phosphorylation compared with NIBR3049 ([4]; PBMC) | concentration that effectively abrogated phosphorylation of STAT5 ([4]; PBMCs, IL-15 stimulation) | inhibition of STAT3 phosphorylation [5] | inhibition of STAT1 phosphorylation [6] | inhibition of STAT5 phosphorylation after washing out with PBS [7] | effect on LPS-induced release of IL-6 [8] | effect on LPS-induced release of TNF-α [9] | effect on IL-6-induced MCP-1 release [10] | inhibition of most kinases of the panel [11] | inhibitory activity against IL-2-induced STAT5 phosphorylation compared with NIBR3049 [12] | cellular selectivity among JAKs (three cytokines) [13]
1 | C=CC(=O)N1CCN(c2ccc([N+](=O)[O-])c(C3=C(c4c[nH]c5ccccc45)C(=O)NC3=O)c2)CC1 [Compound 32, 3-(5-(4-acryloylpiperazin-1-yl)-2-(nitro)phenyl)-4-(1H-indol-3-yl)-1H-pyrrole-2,5-dione] | > 50% | > 50% | > 50% | higher inhibitory activity | 300 nM | only partial inhibition | only partial inhibition | sustained inhibition of STAT5 phosphorylation | significantly inhibited | significantly inhibited | did not inhibit | no more than 50% | higher inhibitory activity | –
2 | Tofacitinib [reference compound] | – | – | – | – | – | – | – | almost lost after washing out | increased cytokine production in different degrees | increased cytokine production in different degrees | did not inhibit | – | – | did not show obvious selectivity
3 | CC(C)(O)C(=O)N1CCN(c2ccc(C(F)(F)F)c(C3=C(c4c[nH]c5ccccc45)C(=O)NC3=O)c2)CC1 [NIBR3049, reference compound] | – | – | – | – | – | – | – | almost lost after washing out | – | – | – | – | – | –
